Assay results as given in PMC3462775 (PLoS ONE, 2012).
≈ marks a conversion by molar mass, not a printed value. Bridge positions count the residues as written; N and C are the ends. Square brackets hold non-standard residues; d marks the D form. Peptide text beside a SMILES is read from it. I, II: the chains in the order shown. βAla = NCCC(=O)O

Assays:
[1] = tested on: E. coli ATCC 25922 biofilm; assay type: cell-based, Escherichia coli; conditions: ATCC 25922, 20 h
Description: (§1) Biofilm formation was performed by adapting the procedure described in [39] using the Calgary Biofilm Device (Innovotech, Innovotech Inc. Edmonton, Canada). Briefly, 96-well plates containing the bacterial inoculum were sealed with lids bearing 96 pegs on which the biofilm could build up. The plates were placed in an orbital incubator at 35°C (for P. aeruginosa and E. coli) or 37°C (for S. aureus) for 20 h under agitation at 125 rpm. Once biofilms formed, the lids were removed from the plates and the pegs were rinsed twice with phosphate buffered saline (PBS) to remove planktonic cells. The peg-lid was then transferred to a 96-well challenge microtiter plate, each well containing 200 µl of a twofold serial dilution of each peptide in LB medium. The challenge plate was incubated at 37°C for 2 hours. Peptide activity on pre-formed biofilm was evaluated by two independent methods: (i) visual observation of bacterial growth and (ii) counting of living bacterial cells after peptide treatment. In the first case, the peg-lid was removed from the challenge plate, rinsed with PBS and used to cover a 96-well recovery microtiter plate, each well containing 200 µl LB medium. The recovery plate was sealed, incubated at 37°C for 4 hours and then observed for any visible growth of bacteria detached from the peptide-treated biofilm. […]

[2] = tested on: P. aeruginosa ATCC 27853 biofilm; assay type: cell-based, Pseudomonas aeruginosa; conditions: ATCC 27853, 2 h
Description: (§2) Biofilm formation was performed by adapting the procedure described in [39] using the Calgary Biofilm Device (Innovotech, Innovotech Inc. Edmonton, Canada). Briefly, 96-well plates containing the bacterial inoculum were sealed with lids bearing 96 pegs on which the biofilm could build up. The plates were placed in an orbital incubator at 35°C (for P. aeruginosa and E. coli) or 37°C (for S. aureus) for 20 h under agitation at 125 rpm. Once biofilms formed, the lids were removed from the plates and the pegs were rinsed twice with phosphate buffered saline (PBS) to remove planktonic cells. The peg-lid was then transferred to a 96-well challenge microtiter plate, each well containing 200 µl of a twofold serial dilution of each peptide in LB medium. The challenge plate was incubated at 37°C for 2 hours. Peptide activity on pre-formed biofilm was evaluated by two independent methods: (i) visual observation of bacterial growth and (ii) counting of living bacterial cells after peptide treatment. In the first case, the peg-lid was removed from the challenge plate, rinsed with PBS and used to cover a 96-well recovery microtiter plate, each well containing 200 µl LB medium. […] Colony forming units (CFU) were expressed as percentage with respect to control (peptide-untreated biofilms). […]

[3] = tested on: S.aureus ATCC 29213; assay: MIC, standard microdilution assay; assay type: cell-based, Staphylococcus aureus; conditions: Reference strain, wild type; CLSI microdilution, cation-supplemented Mueller-Hinton broth, 5x10^4 CFU/well, 18–20 h at 37°C, triplicate
Description: (§3) MICs were determined using a standard microdilution assay as recommended by the Clinical and Laboratory Standards Institute. Assays were performed in triplicate using cation-supplemented Mueller-Hinton (MH) broth (Becton Dickinson, Franklin Lakes, NJ, USA) and a bacterial inoculum of 5x10^4 CFU/well, in a final volume of 100 µl. The tested concentrations ranged from 0.1 µM to 24 µM for both peptides. Results were recorded after 18–20 h of incubation at 37°C.

[4] = tested on: E.coli ATCC 25922; assay: MIC, standard microdilution assay; assay type: cell-based, Escherichia coli; conditions: Reference strain, wild type; CLSI microdilution, cation-supplemented Mueller-Hinton broth, 5x10^4 CFU/well, 18–20 h at 37°C, triplicate
Description: as §3

[5] = tested on: P.aeruginosa ATCC 27853; assay: MIC, standard microdilution assay; assay type: cell-based, Pseudomonas aeruginosa; conditions: Reference strain, wild type; CLSI microdilution, cation-supplemented Mueller-Hinton broth, 5x10^4 CFU/well, 18–20 h at 37°C, triplicate
Description: as §3

[6] = tested on: P. aeruginosa ATCC 27853 biofilm; assay type: cell-based, Pseudomonas aeruginosa; conditions: ATCC 27853, 20 h
Description: as §1

[7] = tested on: S.epidermidis ATCC 14990; assay: MIC, standard microdilution assay; assay type: cell-based, Staphylococcus epidermidis; conditions: Reference strain, wild type; CLSI microdilution, cation-supplemented Mueller-Hinton broth, 5x10^4 CFU/well, 18–20 h at 37°C, triplicate
Description: as §3

[8] = tested on: S. aureus ATCC 25923 biofilm; assay type: cell-based, Staphylococcus aureus; conditions: ATCC 25923, 2 h
Description: as §2

[9] = tested on: K.pneumoniae 7086042; assay type: cell-based, Klebsiella pneumoniae
Description: as §3

[10] = Binding of LPS and LTA to immobilized peptides, surface plasmon resonance; conditions: SPR, biotinylated peptides immobilized on SA flow cells; LPS/LTA 10 µg/ml in HBS-EP+ pH 7.4, injected 180 sec at 30 µl/min
Description: Biotinylated peptides were immobilized on SA coated flow cells. M33-L and M33-D peptides, diluted to 10 µg/ml in HBS-EP+ buffer (10 mM Hepes, 150 mM NaCl, 3.4 mM EDTA, 0.05% polysorbate 20 pH 7.4), were injected for 90 sec at a flow rate of 10 µl/min, obtaining 550 RU and 580 RU for M33-L and M33-D respectively.
LTA and LPS molecules from different species (LPS from E. coli, K. pneumonia, P. aeruginosa and LTA from S. aureus and S. faecalis, were obtained from Sigma-Aldrich: L-3012, L-4268, L9143, L2515 and L4015, respectively) were diluted in HBS-EP+ buffer at the concentration of 10 µg/ml and injected for 180 sec with a flow rate of 30 µl/min over immobilized peptides. An empty flow cell was used as reference.

SMILES	Minimum biofilm eradication concentration (MBEC) [1]	Minimum bactericidal concentration on biofilm (MBCb) [2]	MIC [3]	MIC [4]	MIC [5]	Minimum biofilm eradication concentration (MBEC) [6]	MIC [7]	Minimum bactericidal concentration on biofilm (MBCb) [8]	MIC [9]	binding and kinetic rates of LPS and LTA, M33-L compared with M33-D (in words) [10]
CC[C@@H](C)[C@@H](NC(=O)[C@@H](CCCCN)NC(=O)[C@H](N)CCCCN)C(=O)N[C@H](CCCNC(=N)N)C(=O)N[C@@H](C(=O)N[C@H](CCCNC(=N)N)C(=O)N[C@H](CC(C)C)C(=O)N[C@H](CO)C(=O)N[C@H](C)C(=O)NCCCC[C@H](NC(=O)[C@@H](C)NC(=O)[C@@H](CO)NC(=O)[C@@H](CC(C)C)NC(=O)[C@@H](CCCNC(=N)N)NC(=O)[C@H](NC(=O)[C@@H](CCCNC(=N)N)NC(=O)[C@H](NC(=O)[C@@H](CCCCN)NC(=O)[C@H](N)CCCCN)[C@H](C)CC)C(C)C)C(=O)NCCCC[C@H](NC(=O)[C@H](CCCCNC(=O)[C@@H](C)NC(=O)[C@@H](CO)NC(=O)[C@@H](CC(C)C)NC(=O)[C@@H](CCCNC(=N)N)NC(=O)[C@H](NC(=O)[C@@H](CCCNC(=N)N)NC(=O)[C@H](NC(=O)[C@@H](CCCCN)NC(=O)[C@H](N)CCCCN)[C@H](C)CC)C(C)C)NC(=O)[C@@H](C)NC(=O)[C@@H](CO)NC(=O)[C@@H](CC(C)C)NC(=O)[C@@H](CCCNC(=N)N)NC(=O)[C@H](NC(=O)[C@@H](CCCNC(=N)N)NC(=O)[C@H](NC(=O)[C@@H](CCCCN)NC(=O)[C@H](N)CCCCN)[C@H](C)CC)C(C)C)C(=O)NCCC(=O)O)C(C)C [M33-D] (I: H-[dK][dK][dI][dR][dV][dR][dL][dS][dA]KK[βAla]-OH / II: H-[dK][dK][dI][dR][dV][dR][dL][dS][dA]K / III: H-[dK][dK][dI][dR][dV][dR][dL][dS][dA] / IV: H-[dK][dK][dI][dR][dV][dR][dL][dS][dA]; amide I:10-IV:C, I:11-II:C, II:10-III:C; N-terminus assumed)	3 µM	6 µM (≈ 28.1 µg/mL)	1.5 µM (≈ 7.02 µg/mL)	3 µM (≈ 14 µg/mL)	1.5 µM (≈ 7.02 µg/mL)	3 µM	0.4 µM (≈ 1.87 µg/mL)	1.5 µM (≈ 7.02 µg/mL)	6 µM (≈ 28.1 µg/mL)	No significant difference in binding or kinetic rates
CC[C@H](C)[C@H](NC(=O)[C@H](CCCCN)NC(=O)[C@@H](N)CCCCN)C(=O)N[C@@H](CCCNC(=N)N)C(=O)N[C@H](C(=O)N[C@@H](CCCNC(=N)N)C(=O)N[C@@H](CC(C)C)C(=O)N[C@@H](CO)C(=O)N[C@@H](C)C(=O)NCCCC[C@H](NC(=O)[C@H](C)NC(=O)[C@H](CO)NC(=O)[C@H](CC(C)C)NC(=O)[C@H](CCCNC(=N)N)NC(=O)[C@@H](NC(=O)[C@H](CCCNC(=N)N)NC(=O)[C@@H](NC(=O)[C@H](CCCCN)NC(=O)[C@@H](N)CCCCN)[C@@H](C)CC)C(C)C)C(=O)NCCCC[C@H](NC(=O)[C@H](CCCCNC(=O)[C@H](C)NC(=O)[C@H](CO)NC(=O)[C@H](CC(C)C)NC(=O)[C@H](CCCNC(=N)N)NC(=O)[C@@H](NC(=O)[C@H](CCCNC(=N)N)NC(=O)[C@@H](NC(=O)[C@H](CCCCN)NC(=O)[C@@H](N)CCCCN)[C@@H](C)CC)C(C)C)NC(=O)[C@H](C)NC(=O)[C@H](CO)NC(=O)[C@H](CC(C)C)NC(=O)[C@H](CCCNC(=N)N)NC(=O)[C@@H](NC(=O)[C@H](CCCNC(=N)N)NC(=O)[C@@H](NC(=O)[C@H](CCCCN)NC(=O)[C@@H](N)CCCCN)[C@@H](C)CC)C(C)C)C(=O)NCCC(=O)O)C(C)C [M33-L] (I: H-KKIRVRLSAKK[βAla]-OH / II: H-KKIRVRLSAK / III: H-KKIRVRLSA / IV: H-KKIRVRLSA; amide I:10-IV:C, I:11-II:C, II:10-III:C; N-terminus assumed)	3 µM	6 µM (≈ 28.1 µg/mL)	6 µM (≈ 28.1 µg/mL)	3 µM (≈ 14 µg/mL)	1.5 µM (≈ 7.02 µg/mL)	1.5 µM	1.5 µM (≈ 7.02 µg/mL)	12 µM (≈ 56.2 µg/mL)	3 µM (≈ 14 µg/mL)	No significant difference in binding or kinetic rates
